In test [1] the target is T1, human CCR7 (Homo sapiens, UniProt P32248).
T1 construct: expressed in transfected cells
T1 sequence (P32248 25-378): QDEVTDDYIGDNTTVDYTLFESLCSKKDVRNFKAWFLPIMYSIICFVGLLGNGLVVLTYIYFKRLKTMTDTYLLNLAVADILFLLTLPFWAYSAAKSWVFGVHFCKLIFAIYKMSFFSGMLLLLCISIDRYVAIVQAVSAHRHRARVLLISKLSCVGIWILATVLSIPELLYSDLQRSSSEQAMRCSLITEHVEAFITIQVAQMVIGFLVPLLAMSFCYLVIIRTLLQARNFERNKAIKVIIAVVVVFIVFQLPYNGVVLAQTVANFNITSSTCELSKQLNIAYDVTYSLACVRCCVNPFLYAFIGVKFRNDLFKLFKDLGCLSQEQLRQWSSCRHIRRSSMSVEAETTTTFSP
As to the kind of experiment: CCR7 competition binding assay with CCL19^AF647 (flow cytometry, whole cells). The protocol: In brief, U87.CD4.CCR7 cells were pre-incubated with compound (at different concentrations) in 150 μL assay buffer [Hank’s balanced salt solution (HBSS), 20 mM HEPES and 0.5% Fetal Calf Serum] for 15 min at room temperature (RT) in the dark. Afterwards, 50 μL of CCL19^AF647 was added (25 ng/mL final concentration) and samples were incubated for another 30 min at RT, protected from light. Then, cells were washed twice with assay buffer and fixed in 1% paraformaldehyde in Dulbecco’s phosphate-buffered saline (DPBS).
Samples were immediately analyzed by flow cytometry (FACS Canto II, BD). Data were analysed using Flowjo. The percentage inhibition of CCL19^AF647 binding was calculated according to formula {1—[(MFIX–MFINC)/(MFIPC–MFINC)]} x 100, where MFIX is the mean fluorescence intensity (MFI) of the compound-treated sample, MFINC the MFI of the negative control (i.e., autofluorescence of untreated and unlabeled cells) and MFIPC the MFI of the positive control (i.e., cells exposed to CCL19^AF647 only). […] For each experiment the stain index (SI) was calculated as the ratio of the separation between MFIPC and MFINC, divided by two times the standard deviation of MFINC.
(In general: Flow cytometry measures light scatter and fluorescence of single cells or particles in a stream.)

Test [2] concerns the target T1, human CCR7. As to the kind of experiment: CCL19-induced calcium mobilization assay, U87.CD4 cells expressing CCR7. It is filed as cell-based. The procedure, abridged:
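U87.CD4 cells stably expressing human CCR7, CXCR2 or CCR5 were seeded at 20,000 cells/well and incubated overnight at 37°C and 5% CO2. Cells were then incubated for 45 min at room temperature in the dark before calcium responses were recorded. CCR7 responses were induced with CCL19 and CXCR2 responses with CXCL8.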

Another test concerns the target T2, human CXCR2 (Homo sapiens, UniProt P25025).
T2 construct: expressed in transfected cells
T2 sequence (P25025 1-360): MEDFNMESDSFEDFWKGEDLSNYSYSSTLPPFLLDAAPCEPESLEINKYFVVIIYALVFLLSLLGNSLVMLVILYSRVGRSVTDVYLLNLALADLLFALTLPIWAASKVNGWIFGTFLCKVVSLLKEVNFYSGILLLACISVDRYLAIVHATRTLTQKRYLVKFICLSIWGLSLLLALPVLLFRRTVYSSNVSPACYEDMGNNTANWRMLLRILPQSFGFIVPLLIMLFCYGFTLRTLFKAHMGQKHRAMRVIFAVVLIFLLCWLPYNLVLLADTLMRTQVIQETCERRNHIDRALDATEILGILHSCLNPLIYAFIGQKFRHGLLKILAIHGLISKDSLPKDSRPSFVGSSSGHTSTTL
The test is described as follows: CXCL8-induced calcium mobilization assay, U87.CD4 cells expressing CXCR2. It is filed as cell-based. The protocol:
(§1) U87.CD4 cells that stably express either human CCR7, CXCR2, CCR5 or CXCR4 were seeded (20,000 cells/well) in gelatin-coated black-walled polystyrene 96-well plates with clear bottom and incubated overnight at 37°C and 5% CO2. […] Culture medium was removed, and cells were incubated for 45 min at room temperature in the dark. […] Exactly the same protocol was used to record calcium responses in Chinese hamster ovary (CHO)-K1 cells, upon stimulation with adenosine triphosphate (ATP, purchased from Sigma).
Background: Calcium assays in cells follow changes in intracellular calcium, usually with a dye or a luminescent sensor.

For another test, the target named is T3, human CXCR4 (Homo sapiens, UniProt P61073).
T3 construct: expressed in transfected cells
T3 sequence (P61073 whole entry): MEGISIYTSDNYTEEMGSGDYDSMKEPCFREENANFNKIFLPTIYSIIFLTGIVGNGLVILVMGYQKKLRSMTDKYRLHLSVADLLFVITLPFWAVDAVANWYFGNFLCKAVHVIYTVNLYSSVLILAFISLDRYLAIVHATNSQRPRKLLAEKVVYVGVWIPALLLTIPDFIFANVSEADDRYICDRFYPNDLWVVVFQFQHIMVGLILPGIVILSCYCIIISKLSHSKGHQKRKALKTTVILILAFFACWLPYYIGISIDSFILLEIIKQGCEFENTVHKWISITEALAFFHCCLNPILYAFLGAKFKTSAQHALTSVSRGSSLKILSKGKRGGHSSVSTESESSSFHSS
The test is described as follows: CXCL12-induced calcium mobilization assay, U87.CD4 cells expressing CXCR4. It is filed as cell-based. Conditions: for effect on CXCR4 mediated calcium response: result in words. The protocol: U87.CD4 cells that stably express either human CCR7, CXCR2, CCR5 or CXCR4 were seeded (20,000 cells/well) in gelatin-coated black-walled polystyrene 96-well plates with clear bottom and incubated overnight at 37°C and 5% CO2. The next day, a fluorescent Ca^2+-sensitive dye solution (Fluo-2 AM) was prepared as described before ([Claes et al., 2018]). Culture medium was removed, and cells were incubated for 45 min at room temperature in the dark. Meanwhile, 96-well polypropylene plates containing 5-fold concentrated compound dilutions and 5-fold concentrated solution of chemokine ligands (CCL19, CXCL8, LD78-β, CXCL12, respectively; all purchased from PeproTech) were prepared for use with the FLIPR Tetra device (Molecular Devices) as described before ([Claes et al., 2018]). The antagonistic properties of the compounds were calculated based on their capacity to inhibit the Ca^2+ release induced by a fixed concentration of chemokine (i.e. 50 ng/mL final concentration for CCL19, CXCL8 and CXCL12 and 100 ng/ml for LD78-β), as described ([Claes et al., 2018]). Exactly the same protocol was used to record calcium responses in Chinese hamster ovary (CHO)-K1 cells, upon stimulation with adenosine triphosphate (ATP, purchased from Sigma).

The next test deals with T4, human CCR5 (Homo sapiens, UniProt P51681).
T4 construct: expressed in transfected cells
T4 sequence (P51681 whole entry): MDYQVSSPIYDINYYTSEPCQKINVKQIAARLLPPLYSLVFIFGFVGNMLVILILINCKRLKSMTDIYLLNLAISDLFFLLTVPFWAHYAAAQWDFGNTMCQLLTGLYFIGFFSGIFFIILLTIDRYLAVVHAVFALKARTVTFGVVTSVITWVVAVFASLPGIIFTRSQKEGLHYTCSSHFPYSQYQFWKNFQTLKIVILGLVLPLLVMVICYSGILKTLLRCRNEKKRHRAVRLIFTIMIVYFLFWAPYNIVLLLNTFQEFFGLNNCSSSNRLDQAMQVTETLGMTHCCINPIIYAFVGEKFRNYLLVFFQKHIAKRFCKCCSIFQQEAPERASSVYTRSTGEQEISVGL
As to the kind of experiment: cell-based. The protocol: as §1

The subject of test [3] is ATP-induced Ca2+ release in CHO-K1 cells. As to the kind of experiment: ATP-induced calcium response in CHO-K1 cells. Particulars: ATP 10 µM final concentration, Fluo-2.
Description: Using CHO-K1 cells, exactly the same experimental set-up as for the chemokine receptor expressing U87 cells was applied, essentially including the same fluorescent calcium dye (Fluo-2) for cell loading.
Another test deals with human or murine CCR7. Also on record: method as in Hull-Ryde et al., 2018. Particulars: ref Hull-Ryde et al., 2018, cited from earlier work; for IC50: read-out: IC50, β-arrestin recruitment. (Activated receptors often draw arrestin, which recruitment assays turn into a signal.)

As usually defined, the IC50 is the point on the concentration scale where inhibition reaches its midpoint.

SMILES strings stand for the structures. Where two headings read alike, the source gives them in different places.

As for `FC(F)(F)c1cc(NC(=S)Nc2cc(C(F)(F)F)cc(C(F)(F)F)c2)cc(C(F)(F)F)c1` [C040, S=C(NC1=CC(C(F)(F)F)=CC(C(F)(F)F)=C1)NC2=CC(C(F)(F)F)=CC(C(F)(F)F)=C2], the “activity in CCR7 competition binding assay” value on human CCR7 [1] (highest concentration tested (25 µM)) is “inactive”. Besides, at human CCR7 [1] (result in words), the “inhibition of CCL19^AF647 binding / CCR7 affinity” value is given as “completely devoid of activity”. The “IC50 [μM] block CCL19 induced calcium signaling” value at human CCR7 [2] (CCL19-induced calcium signaling) was “assay interference”. For the same compound, the IC50 on human CCR7 [2] (inhibition of CCL19 induced intracellular calcium flux, Mean ± SD of at least three independent experiments, read-out: Calcium assay IC50) lay in the range of 3 to 18 µM; at human CXCR2 (Mean ± SD of at least three independent experiments, read-out: IC50, CXCL8-CXCR2 Ca2+ response), 3 to 18 µM; on human CXCR4 (Mean ± SD of at least three independent experiments, read-out: IC50, CXCL12-CXCR4 Ca2+ response), 3 to 18 µM; on human CCR5 (Mean ± SD of at least three independent experiments, read-out: IC50, LD78-β-CCR5 Ca2+ response), 3 to 18 µM. Moreover, in test [3], the “inhibition of calcium response induced by ATP” value is on record as “dose-dependently inhibit”.
As for `Cc1ccc([C@@H](NC2=NS(=O)(=O)N=C2Nc2ccc(C)c(C(=O)N(C)C)c2O)C(C)(C)C)o1` [Cmp2105, reference compound], the “inhibition of CXCR2 mediated calcium mobilization” value on human CXCR2 (result in words) is listed as “inhibited”. Besides, on human CXCR4, the “effect on CXCR4 mediated calcium response” value is “no (or only very limited) effect”.
Consider `CC[C@@H](Nc1c(Nc2cccc(C(=O)N(C)C)c2O)c(=O)c1=O)c1ccc(C)o1` [Navarixin], for which, at human CXCR4, the “effect on CXCR4 mediated calcium response” value is on record as “no (or only very limited) effect”. At human CCR5 (result in words), the “effect on CCR5 mediated calcium response” value is on record as “no (or only very limited) effect”.
Take `CC(C)CCC[C@@H](C)[C@H]1CC[C@H]2[C@@H]3CC[C@H]4C[C@@H](CCC=C(c5cc(Cl)c(O)c(C(=O)O)c5)c5cc(Cl)c(O)c(C(=O)O)c5)CC[C@]4(C)[C@H]3CC[C@]12C` [cosalane]: the figures for the IC50 in the test on human or murine CCR7 (CCL19 used as the natural CCR7 ligand) and in the test with human or murine CCR7 (CCL21 used as the agonist) were 0.2 µM and 2.7 µM, respectively. In the test on human or murine CCR7 (result in words), the “activity against human versus murine CCR7” value was “nearly identical activity against the human and murine CCR7 orthologues”.

The record behind these values is publication PMC8972196, “A Set of Experimentally Validated Decoys for the Human CC Chemokine Receptor 7 (CCR7) Obtained by Virtual Screening” (Frontiers in Pharmacology, 2022).
